Columns and labels:
Assay in all cases: relative viability (nuclei count vs DMSO), 5 days (fraction); higher = more cells survive
BAM7 + Dasatinib = compound: CCOC1=CC=CC=C1N=NC2=C(NN(C2=O)C3=NC(=CS3)C4=CC=CC=C4)C [BAM7] + Cc1nc(Nc2ncc(C(=O)Nc3c(C)cccc3Cl)s2)cc(N2CCN(CCO)CC2)n1 [Dasatinib] (partner 0.075 µM)
Method in brief: (§1)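 Relative viability is defined as nuclei in treated wells over nuclei in vehicle wells. Duplicate plates were run and medians reported. Lung cancer cell lines in 1536-well plates were dosed by pin tool one day after seeding, with one drug or with a fixed anchor-drug dose plus five library-drug doses (not always all listed) in √10 steps, and nuclei were counted after 5 days.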

[1] = compound: CCn1c(-c2nonc2N)nc2c(C#CC(C)(C)O)ncc(OC[C@H]3CCCNC3)c21 + Cc1nc(NC(=O)N2CCC[C@H]2C(N)=O)sc1-c1ccnc(C(C)(C)C(F)(F)F)c1 [Alpelisib] (partner 2 µM)
Method in brief: as §1

[2] = compound: CCn1c(-c2nonc2N)nc2c(C#CC(C)(C)O)ncc(OC[C@H]3CCCNC3)c21 + CCNC(=O)c1noc(-c2cc(C(C)C)c(O)cc2O)c1-c1ccc(CN2CCOCC2)cc1 [Luminespib] (partner 0.01 µM)
Method in brief: as §1

[3] = compound: CCn1c(-c2nonc2N)nc2c(C#CC(C)(C)O)ncc(OC[C@H]3CCCNC3)c21 + Nc1ncn([C@H]2C[C@H](O)[C@@H](CO)O2)c(=O)n1 [Decitabine] (partner 2 µM)
Method in brief: as §1

UMC-11
relative viability (BAM7 + Dasatinib; first compound 0.5 µM): 0.511
relative viability (BAM7 + Dasatinib; first compound 5 µM): 0.509
relative viability (BAM7 + Dasatinib; first compound 15.81 µM): 0.449
relative viability (BAM7 + Dasatinib; first compound 50 µM): 0.479
relative viability ([1]; first compound 0.01 µM): 1.04
relative viability ([1]; first compound 0.03162 µM): 0.974
relative viability ([1]; first compound 0.1 µM): 0.969
relative viability ([1]; first compound 0.3162 µM): 0.96
relative viability ([1]; first compound 1 µM): 0.976
relative viability ([2]; first compound 0.01 µM): 0.97
relative viability ([2]; first compound 0.03162 µM): 0.922
relative viability ([2]; first compound 0.1 µM): 0.991
relative viability ([2]; first compound 0.3162 µM): 0.956
relative viability ([2]; first compound 1 µM): 1
relative viability ([3]; first compound 0.01 µM): 0.533
relative viability ([3]; first compound 0.03162 µM): 0.46
relative viability ([3]; first compound 0.1 µM): 0.6
relative viability ([3]; first compound 0.3162 µM): 0.686
relative viability ([3]; first compound 1 µM): 0.607
